ChEMBL document CHEMBL1136487, “Novel non-vanilloid VR1 antagonist of high analgesic effects and its structural requirement for VR1 antagonistic effects” (Bioorg Med Chem Lett, 2003)

Target: Vanilloid receptor (Rattus norvegicus, UniProt Q9ERZ8+Q9WUD2+O35433)
Assay: Inhibition of [Ca2+] uptake in dorsal root ganglion (DRG) neurons from neonatal Sprague-Dawley rat
Format: functional, tissue-based

| IC50 [nM] | Structure (SMILES) |
| --- | --- |
| > 30000 | CC(C)(C)c1ccc(C/N=C(\S)NCc2cccc(F)c2)cc1 |
| 37 | CC(C)(C)c1ccc(CNC(=S)NCc2ccc(NS(C)(=O)=O)c(F)c2)cc1 |
| 590 | Oc1cc2c(cc1O)CN(C(=S)NCCc1ccc(Cl)cc1)CCC2 [CAPSAZEPINE] |
